From patent US12319913B2, “5-halouracil-modified microRNAs and their use in the treatment of cancer” (The Research Foundation for The State University of New York, priority 2018, dated 2025)
[5FU] = 5-fluorouracil base replacing uracil

Assays:
HCT-116 cells = assay: Cell cycle analysis by flow cytometry, colon cancer cells; assay type: cell-based, human
Experimental: Cell cycle analysis: Twenty-four hours after transfection, cells were harvested and resuspended at 0.5 to 1×10^6 cells/mL in modified Krishan's buffer supplemented with 0.02 mg/mL RNase H and 0.05 mg/mL propidium iodide. Stained cells were detected by flow cytometry and results were analyzed with Modfit LT™ software. The experiments for cell cycle analysis were performed at least three times.

[1] = system: acute lymphocytic leukemia cell line (REH); assay: Cell proliferation, REH; assay type: cell-based, human; conditions: 50 nM, 25 nM, 12.5 nM, 6.25 nM, and 3.125 nM
[2] = system: AsPC-1 pancreatic cancer cells; assay: Cell proliferation, AsPC-1; assay type: cell-based, human; conditions: for cell proliferation, dose dependence: APSC-1, 50 nM, 25 nM, 12.5 nM, 6.25 nM, and 3.125 nM
Experimental: […] For reagent free transfection, cells were plated in 6 well plates at (1×10^5) cells per well. Twenty-four hours later 100 pmol miRNA (Control, miR-15a, Mimic-1) were diluted in Optimem (Thermo Fischer) and added to the plate. Media was changed after 24 hours. Media was supplemented with 10% fetal bovine serum (Thermo Fischer). Briefly, cells were cultured in growth media (DMEM/F12 supplemented with B27, 10 ng/mL bFGF, and 20 ng/mL EGF (Life Technologies) in ultra-low attachment flasks) for up to 6 days. The spheroid cells were maintained by collection through gentle centrifugation, dissociation to single cells and replating.
(§1) Cell proliferation assay: Twenty-four hours after transfection, cells were seeded in 96-well plates at a density of 2000 cells per well. The cell proliferation assay was performed on days 1 to 5 by incubating 10 μl WST-1 (Roche Applied Science, Mannheim, Germany) in the culture medium for 1 h and reading the absorbance at 450 and 630 nm. The cell proliferation rate was calculated by subtracting the […]. Experiments for the cell proliferation assay were performed at least three times. The O.D. was calculated by subtracting the absorbance at 630 nm from that at 450 nm. Proliferation experiments were performed three times.

[3] = system: metastatic human colon cancer cells; assay: Colon cancer metastasis mouse model, intravenous miRNA delivery; assay type: in vivo; conditions: 40 μg intravenous, every other day for two weeks
Experimental: For in vivo miRNA delivery experiments, colon cancer cells were created that expressed the lenti-luc reporter gene by infecting parental HCT116 cells with a recombinant lentivirus. Luciferase-expressing HCT116 cells (2.0×10^6 cells per mouse) were suspended in 0.1 mL of PBS solution and was injected through tail vein of each mouse. Two weeks after injection of colon cancer cells, mice were treated via tail vein injection with 40 μg of negative control or modified miR(s) packaged with in vivo-jetPEI (Polyplus Transfection). Mice were treated every other day for 2 weeks (8 times). Following treatment, mice were screened using IVIS Spectrum In vivo Imaging System (IVIS) (PerkinElmer).

[4] = system: HCT116 colon cancer cells; assay: WST-1 cell proliferation assay, HCT116; assay type: cell-based, human; conditions: for inhibition of colon cancer cell proliferation: HCT116, in words, vs controls
Experimental: For transfections, […] (Thermo Fischer) following the manufacturer's protocols. For reagent free transfection, cells were plated in 6 well plates at (1×10^5) cells per well. Twenty-four hours later 100 pmol miRNA (Control, miR-15a, Mimic-1) were diluted in Optimem (Thermo Fischer) and added to the plate. Media was changed after 24 hours. Media was supplemented with 10% fetal bovine serum (Thermo Fischer). Briefly, cells were cultured in growth media (DMEM/F12 supplemented with B27, 10 ng/mL bFGF, and 20 ng/mL EGF (Life Technologies) in ultra-low attachment flasks) for up to 6 days. The spheroid cells were maintained by collection through gentle centrifugation, dissociation to single cells and replating.
as §1

colon cancer stem cells = assay: Anchorage-independent colony formation (soft agar); assay type: cell-based, human; conditions: soft agar / Matrigel matrix
Experimental: Anchorage-independent proliferation was studied to determine cancer cell colony forming ability. Cancer cells were trypsinized and counted and a total of 1×10^5 cells per well were transfected in 6-well plates with 25 nM modified microRNA or native miRs or a negative control miRNA with oligofectamine, and 6 hours after transfection, cells were recounted. A total of 20,000 cells in 0.35% agar (Bacto Agar; Becton Dickinson) were layered on top of 1 mL of a solidified 0.6% agar layer in a 35-mm dish. Growth media with B27, 10 ng/mL bFGF, and 20 ng/mL EGF were included in both layers. After 2 weeks of incubation, colonies more than […] in diameter were counted.

AGS stomach cancer cells = assay: Cell proliferation, AGS; assay type: cell-based, human; conditions: compared to negative controls
Experimental: (§2) For transfections, 1×10^5 cells were plated in six-well plates and transfected with 100 nM of control non-specific miRNA (Thermo Fischer), a modified microRNA, or exogenous native microRNA after 24 hours using Oligofectamine (Thermo Fischer) following the manufacturer's protocols. For reagent free transfection, cells were plated in 6 well plates at (1×10^5) cells per well. Twenty-four hours later 100 pmol miRNA (Control, miR-15a, Mimic-1) were diluted in Optimem (Thermo Fischer) and added to the plate. Media was changed after 24 hours. Media was supplemented with 10% fetal bovine serum (Thermo Fischer). Briefly, cells were cultured in growth media (DMEM/F12 supplemented with B27, 10 ng/mL bFGF, and 20 ng/mL EGF (Life Technologies) in ultra-low attachment flasks) for up to 6 days. The spheroid cells were maintained by collection through gentle centrifugation, dissociation to single cells and replating.
as §1

TS-FdUMP = molecular target: T1, TS-FdUMP (Homo sapiens, UniProt P04818); assay: Western blot of TS-FdUMP in colon cancer cells; assay type: cell-based; conditions: colon/colorectal cancer cells
T1 construct: endogenous in cells
T1 sequence (P04818 2-313 limits assumed): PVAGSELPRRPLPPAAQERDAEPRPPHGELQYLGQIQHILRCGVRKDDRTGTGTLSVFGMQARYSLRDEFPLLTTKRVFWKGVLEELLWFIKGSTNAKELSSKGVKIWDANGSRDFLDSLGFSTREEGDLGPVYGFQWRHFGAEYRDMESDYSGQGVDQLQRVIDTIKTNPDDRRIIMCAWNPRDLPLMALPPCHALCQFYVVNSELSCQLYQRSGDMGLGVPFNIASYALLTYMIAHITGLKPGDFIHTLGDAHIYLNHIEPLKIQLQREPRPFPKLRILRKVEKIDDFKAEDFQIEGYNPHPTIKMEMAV
Experimental: Western immunoblot analysis: Forty-eight hours after transfection, equal amounts of protein (15 μg) extracted from cells lysed in RIPA buffer with protease inhibitor (Sigma) and were separated on 10%-12% sodium dodecyl sulfate-polyacrylamide gels using standard procedures. The primary antibodies used for the analysis were rabbit anti-YAP1 monoclonal antibody (1:10000) (Cell Signaling Technologies), anti-DLCK1 (1:500) (Abcam), anti-BCL2 (1:500) (NeoMarkers), anti-MDC1 (1:500), anti-SUZ12 (1:500), anti-pChk-1 (1:500), anti beta-actin (1:500), anti-BMI-1 (1:10000) (Cell Signaling Technologies), mouse anti-human TS antibody (1:500), anti-α-tubulin (1:50000) (Santa Cruz Biotech Inc.), anti-GAPDH (1:100000) (Santa Cruz Biotech Inc.), anti-E2F3 (1:500) (Santa Cruz Biotech Inc.), Horseradish peroxidase-conjugated antibodies against mouse or rabbit (1:5000, Santa Cruz Biotech Inc.) were used as the secondary antibodies. Protein bands were visualized with autoradiography film using SuperSignal West Pico Chemiluminescent Substrate (Thermo Fischer). Western blot density was quantified using Image J software.

[5] = system: SKBR3 breast cancer cells; assay: Cell proliferation, SKBR3; assay type: cell-based, human; conditions: SKBR3, compared to negative controls
Experimental: as §2, §1

Row | Substance | increase in the G1/S ratio (HCT-116 cells; colon cancer cells, compared to the control) [fold] | leukemia cancer cell proliferation, dose dependence [1] | cell proliferation, dose dependence [2] | inhibition of cell proliferation ([2]; AsPC-1, compared to unmodified miR or negative controls) | colon cancer metastasis [3] | toxicity [3] | inhibition of colon cancer cell proliferation [4] | decrease of cell proliferation compared to control ([4]; HCT-116, WST-1, six days after transfection) [%] | colony / sphere formation (colon cancer stem cells) | gastric cancer cell proliferation (AGS stomach cancer cells) | TS-FdUMP break down (TS-FdUMP) | breast cancer cell proliferation [5] | G1 arrest, potency relative to native miR-129 (HCT-116 cells; HCT-116, flow cytometry) | toxicity ([3]; listed as modified microRNA-129) | HCT-116 tumor cell growth ([4]; 50 nM) | inhibitory effect on cell proliferation relative to native miR-129 ([4]; HCT-116, FIG. 3)
1 | U^FAGCAGCACAU^FAAU^FGGU^FU^FU^FGU^FG (UAGCAGCACAUAAUGGUUUGUG; RNA, [5FU] at 1, 11, 14, 17, 18, 19, 21, backbone not given here) [modified miR-15a] | 7 | inhibited in a dose dependent manner | inhibited in a dose dependent manner | enhanced ability to inhibit | inhibit colon cancer metastasis | did not exhibit any toxicity | enhanced ability to inhibit colon cancer cell proliferation | 84 | no colonies were observed | inhibited | break downs TS-FdUMP | inhibited | – | – | – | –
2 | CU^FU^FU^FU^FU^FGCGGU^FCU^FGGGCU^FU^FGC (CUUUUUGCGGUCUGGGCUUGC; RNA, [5FU] at 2, 3, 4, 5, 6, 11, 13, 18, 19, backbone not given here) [modified miR-129] | – | inhibited in a dose dependent manner | inhibited in a dose dependent manner | – | inhibits colon cancer metastasis | did not exhibit any toxicity | inhibition of colon cancer cell proliferation | – | formed no visible spheres | inhibited | break downs TS-FdUMP significantly better than 5-FU alone | inhibited | more than two-fold | no toxic side effects | suppress HCT-116 tumor cell growth completely | much more potent than the native miR-129
